From patent EP1233748B1, “RETINALDEHYDE COMBINATION WITH ANTIFUNGAL ACTIVITY” (Pierre Fabre Dermo-Cosmetique, priority 1999, dated 2001)

Legend:
Format in all cases: cell-based
[1] = system: Malassézia furfur IP 1363-82; Malassezia furfur sauvage; test: Determination of the minimal fungistatic concentration (CMF), serial two-fold dilution in Dixon broth in microplates; conditions: product alone, 32°C, 48 to 72 h
Protocol: (§1) *souche : Malassézia furfur IP 1363-82 Malassezia furfur sauvage collecté auprès d'un pityriasis versicolor chez un patient hospitalisé au Centre Hospitalier Régional de Toulouse Rangueil (France). *milieu de culture : Dixon modifié (sous forme de bouillon et sous forme gélosée par ajout d'agar) *appareillage : microplaques stériles Nunc ® Nunclon à 96 puits eau distillée stérile tubes à essais stériles étuve à 32°C spectrophotomètre et cuves adaptées billes de verre stériles *produits : les solutions-mères des produits cités ci-dessous ont été préparés comme suit : • Trans rétinal :solution à 1% dans 20% d'éthanol 95 complétée avec de l'eau distillée stérile. • undécanal :solution à 1% dans 10% de Tween 80 complétée par de l'eau distillée stérile.
• une distribution de 100µl de bouillon Dixon est réalisée dans chaque cupule de la microplaque stérile. • une distribution de 100µl des différents produits a lieu dans une cupule, une cupule par produit (on est alors à 50% d'actif). • une série de dilutions sériées au demi est ensuite réalisée contre un témoin stérilité du milieu de culture et un autre témoin de la vigueur de la souche.
L'ensemencement de la microplaque a lieu sous atmosphère stérile après préparation de l'inoculum fongique comme suit : […]

[2] = system: Malassézia furfur IP 1363-82; Malassezia furfur sauvage; test: Combination study, checkerboard method on microplate, CMF in association and FIC Index; conditions: for CMF % Associés: product in association (Rétinal + Ald. C11), checkerboard, 32°C
Protocol: as §1
Des solutions-mères comme décrites précédemment égales à deux fois la CMF sont réalisées. La méthode de l'échiquier rapportée sur microplaque est utilisée pour croiser les séries de dilution au demi de chaque actif. Après ensemencement et incubation à 32°C, on procède à la lecture des CMF. Un repérage des CMF donnant lieu à des synergies peut alors se faire. Nous obtenons après calcul des FIC Index le tableau suivant :
La synergie peut être mise en évidence par le calcul des Index FIC (Fractional Inhibitory Concentration) des produits. Pour cela, on mesure la valeur de la CMF (ou Concentration Minimale Fongistatique) des principes actifs à tester vis-à-vis d'un type de germe.
Le FIC d'un produit A est défini comme : FICA =(CMF du produit A en association)/(CMF du produit A seul) [formula]
L'association de deux antifongiques A et B est synergique si la somme FIC des rapports (FICA et FICB) est inférieure ou égale à 0,75.
Plus la valeur FIC est faible, plus la synergie est importante.
On considère qu'il y a simple additivité pour des valeurs de FIC comprises entre 0,75 et 1,1 et indifférente dans l'intervalle compris entre 1,1 et 2; au-delà, l'association est notée antagoniste.

Malassezia = test: Antifungal activity on Malassezia, general statements in the description; conditions: alone

| Structure (SMILES) | CMF % Seuls [1] | CMF % Associés [2] | FIC Index ([2]; sum of FIC for the association Rétinal + Ald. C11, synergy if <= 0,75) | action sur les levures telles Malassezia (Malassezia) |
| --- | --- | --- | --- | --- |
| CC1=C(/C=C/C(C)=C/C=C/C(C)=C/C=O)C(C)(C)CCC1 [Rétinal, Trans rétinal] | 0,25 – 0,5% | 0,06 – 0,25% | 0,51 à 0,75 | ne possède pas d'action notoire |
| CCCCCCCCCCC=O [Ald. C11, undécanal] | – | 0,0001 – 0,03% | – | – |
